In brackets after ≈: the same amount, converted by molar mass.
Assays:
Assay type in all cases: functional
Staphylococcus aureus [1] = assay: Antibacterial activity against methicillin-resistant Staphylococcus aureus isolate 3170 after 18 hrs by broth microdilution method; details: isolate 3170, 18 h
Staphylococcus aureus [2] = assay: Antibacterial activity against methicillin-resistant Staphylococcus aureus isolate 4023 after 18 hrs by broth microdilution method; details: isolate 4023, 18 h
Staphylococcus aureus [3] = assay: Antibacterial activity against methicillin-resistant Staphylococcus aureus isolate 8078 after 18 hrs by broth microdilution method; details: isolate 8078, 18 h
Staphylococcus aureus [4] = assay: Antibacterial activity against methicillin-resistant Staphylococcus aureus isolate 8162 after 18 hrs by broth microdilution method; details: isolate 8162, 18 h
Staphylococcus aureus [5] = assay: Antibacterial activity against methicillin-resistant Staphylococcus aureus isolate 5395 after 18 hrs by broth microdilution method; details: isolate 5395, 18 h
Staphylococcus aureus [6] = assay: Antibacterial activity against methicillin-resistant Staphylococcus aureus isolate 1428 after 18 hrs by broth microdilution method; details: isolate 1428, 18 h
Staphylococcus aureus [7] = assay: Antibacterial activity against methicillin-resistant Staphylococcus aureus isolate 1651 after 18 hrs by broth microdilution method; details: isolate 1651, 18 h
Staphylococcus aureus [8] = assay: Antibacterial activity against methicillin-resistant Staphylococcus aureus isolate 7587 after 18 hrs by broth microdilution method; details: isolate 7587, 18 h
Enterococcus faecalis [9] = assay: Antibacterial activity against vancomycin-resistant Enterococcus faecalis ATCC 700221 after 18 hrs by broth microdilution method; details: ATCC 700221, 18 h
Staphylococcus aureus [10] = assay: Antibacterial activity against methicillin-resistant Staphylococcus aureus isolate 2158 after 18 hrs by broth microdilution method; details: isolate 2158, 18 h
Staphylococcus aureus [11] = assay: Antibacterial activity against methicillin-resistant Staphylococcus aureus isolate 5426 after 18 hrs by broth microdilution method; details: isolate 5426, 18 h
Staphylococcus aureus [12] = assay: Antibacterial activity against methicillin-resistant Staphylococcus aureus isolate 8071 after 18 hrs by broth microdilution method; details: isolate 8071, 18 h
Staphylococcus aureus [13] = assay: Antibacterial activity against methicillin-resistant Staphylococcus aureus isolate 5035 after 18 hrs by broth microdilution method; details: isolate 5035, 18 h
Staphylococcus aureus [14] = assay: Antibacterial activity against methicillin-resistant Staphylococcus aureus isolate 7916 after 18 hrs by broth microdilution method; details: isolate 7916, 18 h
Staphylococcus aureus [15] = assay: Antibacterial activity against methicillin-resistant Staphylococcus aureus isolate 2671 after 18 hrs by broth microdilution method; details: isolate 2671, 18 h
Staphylococcus aureus [16] = assay: Antibacterial activity against methicillin-resistant Staphylococcus aureus isolate 6515 after 18 hrs by broth microdilution method; details: isolate 6515, 18 h
Staphylococcus aureus [17] = assay: Antibacterial activity against methicillin-resistant Staphylococcus aureus isolate 6334 after 18 hrs by broth microdilution method; details: isolate 6334, 18 h
[18] = tested on: Staphylococcus epidermidis; assay: Antibacterial activity against Staphylococcus epidermidis ATCC 12228 after 18 hrs by broth microdilution method; details: ATCC 12228, 18 h
Staphylococcus aureus [19] = assay: Antibacterial activity against methicillin-resistant Staphylococcus aureus isolate 1708 after 18 hrs by broth microdilution method; details: isolate 1708, 18 h
Staphylococcus aureus [20] = assay: Antibacterial activity against methicillin-resistant Staphylococcus aureus isolate 1947 after 18 hrs by broth microdilution method; details: isolate 1947, 18 h
Enterococcus faecalis [21] = assay: Antibacterial activity against Enterococcus faecalis ATCC 29212 after 18 hrs by broth microdilution method; details: ATCC 29212, 18 h
Staphylococcus aureus [22] = assay: Antibacterial activity against methicillin-resistant Staphylococcus aureus isolate 4127 after 18 hrs by broth microdilution method; details: isolate 4127, 18 h
Staphylococcus aureus [23] = assay: Antibacterial activity against methicillin-resistant Staphylococcus aureus isolate 7943 after 18 hrs by broth microdilution method; details: isolate 7943, 18 h
Staphylococcus aureus [24] = assay: Antibacterial activity against methicillin-resistant Staphylococcus aureus isolate 7960 after 18 hrs by broth microdilution method; details: isolate 7960, 18 h
Staphylococcus aureus [25] = assay: Antibacterial activity against methicillin-resistant Staphylococcus aureus ATCC 33591 after 18 hrs by broth microdilution method; details: ATCC 33591, 18 h
Staphylococcus aureus [26] = assay: Antibacterial activity against methicillin-resistant Staphylococcus aureus isolate 7972 after 18 hrs by broth microdilution method; details: isolate 7972, 18 h
Staphylococcus aureus [27] = assay: Antibacterial activity against methicillin-resistant Staphylococcus aureus isolate 7717 after 18 hrs by broth microdilution method; details: isolate 7717, 18 h
Staphylococcus aureus [28] = assay: Antibacterial activity against methicillin-resistant Staphylococcus aureus isolate 7247 after 18 hrs by broth microdilution method; details: isolate 7247, 18 h
Staphylococcus aureus [29] = assay: Antibacterial activity against methicillin-resistant Staphylococcus aureus isolate 7536 after 18 hrs by broth microdilution method; details: isolate 7536, 18 h
Staphylococcus aureus [30] = assay: Antibacterial activity against methicillin-resistant Staphylococcus aureus isolate 7971 after 18 hrs by broth microdilution method; details: isolate 7971, 18 h
Staphylococcus aureus [31] = assay: Antibacterial activity against methicillin-resistant Staphylococcus aureus ATCC 33592 after 18 hrs by broth microdilution method; details: ATCC 33592, 18 h
Staphylococcus aureus [32] = assay: Antibacterial activity against methicillin-resistant Staphylococcus aureus isolate 7449 after 18 hrs by broth microdilution method; details: isolate 7449, 18 h
Staphylococcus aureus [33] = assay: Antibacterial activity against methicillin-resistant Staphylococcus aureus isolate 7434 after 18 hrs by broth microdilution method; details: isolate 7434, 18 h
Staphylococcus aureus [34] = assay: Antibacterial activity against methicillin-resistant Staphylococcus aureus isolate 1610 after 18 hrs by broth microdilution method; details: isolate 1610, 18 h
Staphylococcus aureus [35] = assay: Antibacterial activity against methicillin-resistant Staphylococcus aureus isolate 7682 after 18 hrs by broth microdilution method; details: isolate 7682, 18 h
Staphylococcus aureus [36] = assay: Antibacterial activity against methicillin-resistant Staphylococcus aureus ATCC BAA41 after 18 hrs by broth microdilution method; details: ATCC BAA41, 18 h
Staphylococcus aureus [37] = assay: Antibacterial activity against methicillin-resistant Staphylococcus aureus isolate 3096 after 18 hrs by broth microdilution method; details: isolate 3096, 18 h
Escherichia coli = assay: Antibacterial activity against Escherichia coli ATCC 25922 after 18 hrs by broth microdilution method; details: ATCC 25922, 18 h

Structure (SMILES) | MIC90 (Staphylococcus aureus [1]) [µg/mL] | MIC90 (Staphylococcus aureus [2]) [µg/mL] | MIC90 (Staphylococcus aureus [3]) [µg/mL] | MIC90 (Staphylococcus aureus [4]) [µg/mL] | MIC90 (Staphylococcus aureus [5]) [µg/mL] | MIC90 (Staphylococcus aureus [6]) [µg/mL] | MIC90 (Staphylococcus aureus [7]) [µg/mL] | MIC90 (Staphylococcus aureus [8]) [µg/mL] | MIC90 (Enterococcus faecalis [9]) [µg/mL] | MIC90 (Staphylococcus aureus [10]) [µg/mL] | MIC90 (Staphylococcus aureus [11]) [µg/mL] | MIC90 (Staphylococcus aureus [12]) [µg/mL] | MIC90 (Staphylococcus aureus [13]) [µg/mL] | MIC90 (Staphylococcus aureus [14]) [µg/mL] | MIC90 (Staphylococcus aureus [15]) [µg/mL] | MIC90 (Staphylococcus aureus [16]) [µg/mL] | MIC90 (Staphylococcus aureus [17]) [µg/mL] | MIC90 [18] [µg/mL] | MIC90 (Staphylococcus aureus [19]) [µg/mL] | MIC90 (Staphylococcus aureus [20]) [µg/mL] | also measured
COc1cccc(OC)c1C(=O)N[C@@H]1C(=O)N2[C@@H]1SC(C)(C)[C@@H]2C(=O)O [METHICILLIN] | > 64 | > 64 | > 64 | > 64 | > 64 | > 64 | > 64 | > 64 | 6 (≈ 15.8 µM) | > 64 | > 64 | > 64 | > 64 | > 64 | > 64 | > 64 | > 64 | 0.5 (≈ 1.31 µM) | > 64 | > 64 | MIC90 (Enterococcus faecalis [21]): 6 µg/mL (≈ 15.8 µM); MIC90 (Staphylococcus aureus [22]): > 64 µg/mL; MIC90 (Staphylococcus aureus [23]): > 64 µg/mL; MIC90 (Staphylococcus aureus [24]): > 64 µg/mL; MIC90 (Staphylococcus aureus [25]): > 192 µg/mL; MIC90 (Staphylococcus aureus [26]): > 64 µg/mL; MIC90 (Staphylococcus aureus [27]): > 64 µg/mL; MIC90 (Staphylococcus aureus [28]): > 64 µg/mL; MIC90 (Staphylococcus aureus [29]): > 64 µg/mL; MIC90 (Staphylococcus aureus [30]): > 64 µg/mL; MIC90 (Staphylococcus aureus [31]): > 192 µg/mL; MIC90 (Staphylococcus aureus [32]): > 64 µg/mL; MIC90 (Staphylococcus aureus [33]): > 64 µg/mL; MIC90 (Staphylococcus aureus [34]): > 64 µg/mL; MIC90 (Staphylococcus aureus [35]): > 64 µg/mL; MIC90 (Staphylococcus aureus [36]): > 192 µg/mL; MIC90 (Staphylococcus aureus [37]): > 64 µg/mL; MIC90 (Escherichia coli): 4 µg/mL (≈ 10.5 µM)
CN[C@H](CC(C)C)C(=O)N[C@H]1C(=O)N[C@@H](CC(N)=O)C(=O)N[C@H]2C(=O)N[C@H]3C(=O)N[C@H](C(=O)N[C@H](C(=O)O)c4cc(O)cc(O)c4-c4cc3ccc4O)[C@H](O)c3ccc(c(Cl)c3)Oc3cc2cc(c3O[C@@H]2O[C@H](CO)[C@@H](O)[C@H](O)[C@H]2O[C@H]2C[C@](C)(N)[C@H](O)[C@H](C)O2)Oc2ccc(cc2Cl)[C@H]1O [VANCOMYCIN] | 2 (≈ 1.38 µM) | 2 (≈ 1.38 µM) | 2 (≈ 1.38 µM) | 1 (≈ 0.69 µM) | 1 (≈ 0.69 µM) | 0.5 (≈ 0.345 µM) | 2 (≈ 1.38 µM) | 2 (≈ 1.38 µM) | > 64 | 1 (≈ 0.69 µM) | 1 (≈ 0.69 µM) | 1 (≈ 0.69 µM) | 1 (≈ 0.69 µM) | 1 (≈ 0.69 µM) | 1 (≈ 0.69 µM) | 1 (≈ 0.69 µM) | 1 (≈ 0.69 µM) | 0.5 (≈ 0.345 µM) | 1 (≈ 0.69 µM) | 2 (≈ 1.38 µM) | MIC90 (Enterococcus faecalis [21]): > 64 µg/mL; MIC90 (Staphylococcus aureus [22]): 1 µg/mL (≈ 0.69 µM); MIC90 (Staphylococcus aureus [23]): 2 µg/mL (≈ 1.38 µM); MIC90 (Staphylococcus aureus [24]): 2 µg/mL (≈ 1.38 µM); MIC90 (Staphylococcus aureus [25]): 2 µg/mL (≈ 1.38 µM); MIC90 (Staphylococcus aureus [26]): 1 µg/mL (≈ 0.69 µM); MIC90 (Staphylococcus aureus [27]): 1 µg/mL (≈ 0.69 µM); MIC90 (Staphylococcus aureus [28]): 1 µg/mL (≈ 0.69 µM); MIC90 (Staphylococcus aureus [29]): 1 µg/mL (≈ 0.69 µM); MIC90 (Staphylococcus aureus [30]): 1 µg/mL (≈ 0.69 µM); MIC90 (Staphylococcus aureus [31]): 2 µg/mL (≈ 1.38 µM); MIC90 (Staphylococcus aureus [32]): 1 µg/mL (≈ 0.69 µM); MIC90 (Staphylococcus aureus [33]): 1 µg/mL (≈ 0.69 µM); MIC90 (Staphylococcus aureus [34]): 1 µg/mL (≈ 0.69 µM); MIC90 (Staphylococcus aureus [35]): 1 µg/mL (≈ 0.69 µM); MIC90 (Staphylococcus aureus [36]): 2 µg/mL (≈ 1.38 µM); MIC90 (Staphylococcus aureus [37]): 1 µg/mL (≈ 0.69 µM); MIC90 (Escherichia coli): 2 µg/mL (≈ 1.38 µM)

Reference: ChEMBL document CHEMBL4325853, “Design, synthesis and antibacterial evaluation of 2,4-disubstituted-6-thiophenyl-pyrimidines” (Eur J Med Chem, 2019)
